Experimental findings from patent publication EP3222276B1, “PHARMACEUTICAL COMPOSITION FOR TREATING CANCER AND BIOMARKER FOR DRUG SCREENING” (National Defense Medical Center, priority 2014, dated 2016) are described below.

Series [1] relates to ACHN cells. In words: ACHN xenograft in immunodeficient mice, tumor volume. It is filed as in vivo. As to conditions: 5 mg/kg sorafenib oral, 10 mg/kg GW5074 s.c., alone or combined; once a day for three weeks; n=8. On the procedure: Six-week old immnunodeficient male mice (BALB/cAnN.Cg-Foxn1^nu/CrlNarl) with an average weight of 20 grams were xenografted with 1x10^7 ACHN cells to the right by […]. The mice were maintained in a specific pathogen-free (SPF) environment. The size of tumor was measured using a digital caliper twice a week and tumor volume was calculated by the equation of length^∗width^∗height^∗0.5. […] A total of four groups were included in the experiment: a control group which received only vehicle (DMSO), […], 25 mg/kg GW5074, […], respectively, with 8 mice in each group.

In another series the test system is Luc-ACHN-LL cells. Briefly: Orthotopic metastasis model of renal carcinoma, IVIS photon signal and survival. In kind it is in vivo, mice. As to conditions: for death within, following injection of cancer cells: 10 mg/kg sorafenib alone or 25 mg/kg GW5074 alone. Here is the method:
To simulate clinical phenomenon, we established an orthotopic spontaneous animal model for studying metastasis of renal carcinoma. First, ACHN cells were transfected with the luciferase gene and the resultamt Luc-ACHN transfectants (stable transfectants which express the luciferase) with different expression levels were then selected for in vivo culture in mice by subcutaneous injection. Six-week old and shaved mice were subcutaneously injected with 1×10^7 Luc-ACHN cells In 0.1 ml PBS. Two months after the injection, the mice were sacrificed and their kidneys, livers, regional lymph nodes as well as other organs were collected for assessing tumor cells that were potentially metastatic, which was confirmed by hematoxylin-eosin (H&E) staining. Tumor cell lines that are highly metastatic were dissected in 1 ml PBS into small pieces aseptically and then cultured in MEM media containing 10% FBS (fetal bovine serum) and 1% penicillin/streptomycin following centrifugation. A few days later, monoclonal cell lines were first treated with the trypsin to dissociate the cells and then cultured in vitro. The cells obtained from liver tumor tissues were named ACHN-L. The metastatic potential of various monoclonal cell lines collected from different organs was further analyzed by xenografting these tumor cells to the left kidneys of mice. The xenografted mice were sacrificed and examined 8 weeks after the injection of tumor cells. The tumor growth observed in each organ was investigated through visual examination and histology procedures. The metastatic cells found in the liver were dissected into small pieces aseptically and cultured in vitro. The cells obtained from liver tumor tissues were named ACHN-L (subcutaneous injection) cells and the cells collected from the metastatic lesions after injection of ACHN-L cells to the left kidneys were called ACHN-LL cells. The same procedure using orthotopic xenograft of ACHN-LL cells and liver metastatic cells was repeated twice to select for highly metastatic tumors. The cancer cell line (Luc-ACHN-LL), which is highly metastatic and causes high mortality, was selected. Immunodeficient male mice was injected with 3×10^5 Luc-ACHN-LL cells in 50 µL PBS at the right renal capsule. The in vivo luciferase activity was examined every day for up to three weeks so as to assure that there were no leakage of cancer cells at the kidneys immediately after the injection and to monitor the metastasis of these cancer cells. Two to five minutes before utilizing the IVIS Xenogene system, 75 mg/kg D-Luciferin (Xenogen) in PBS was injected to the retro-orbital sinus of each mouse. […]

The test system of series [2] is ACHN cells. In words: Annexin V-FITC / propidium iodide flow cytometry for apoptosis or necrosis. It is filed as cell-based, Human. As to conditions: 5 µM sorafenib, 10 µM GW5074 or both; 24 hours; n=4. On the procedure:
(§1) The combination therapy of sorafenib and GW5074 induces cell necrosis through the dephosphorylation of the death-associated DAPK at serine 308 followed by dissociation from proto-oncogene c-Raf. Cells were cultured as described in example 1, washed with phosphate buffered saline (PBS), and stained with the annexin V-FITC and propidium iodide (PI) for 15 minutes. The presence of fluorescent Annexin V as well as propidium iodide (PI) was detected by flow cytometry so as to determine whether the cell death is caused by apoptosis or necrosis. The expression of c-Raf and DAPK as well as the phosphorylation level of DAPK were examined by Western blot and immunoprecipitation using antibodies. Anti-DAPK antibodies or non-immune rabbit IgG (IP: immunoglobulin) were included as negative controls, and cell survival was measured by SRB assay, as shown In example 1. In this experiment, ACHN cells were treated separately with DMSO (as a control group), 5 µM sorafenib, 10 µM GW5074, or the combination therapy of 5 µM sorafenib and 10 µM GW5074 for 24 hours.

For series [3], the system named is ACHN cells. In words: SRB assay of cell survival / growth inhibition. It is filed as cell-based, Human. As to conditions: 5 µM sorafenib or 10 µM GW5074 alone, or both combined (GW5074 30 minutes before sorafenib); 24 hours. Here is the method:
Human renal carcinoma (ACHN) cells were cultured in Eagle MEM (Minimum Essential Medium) with 10% FBS (Fetal Bovine Serum) and 1% penicillin/streptomycin. Sulforhodamine B (SRB) is a negative […] with a sulfonic acid group and binds to basic amino acids of intracellular proteins in weak acidic conditions. The SRB […] was extracted from cells using weak alkaline solution and then subjected to absorbance measurement. The amount of intracellular proteins, which is an indicator for cell survival, can be calculated from the amount of SRB.

The subject of another series is pDAPK^S308. Briefly: Western blot of DAPK S308 phosphorylation in ACHN cells. It is filed as cell-based, Human. As to conditions: various concentrations, only when provided 30 minutes prior to the combination drugs. On the procedure:
as §1
Background: A western blot detects proteins with antibodies after separation by electrophoresis.

With `O=C1Nc2ccc(I)cc2C1=Cc1cc(Br)c(O)c(Br)c1` [GW5074, 3-(3,5-Dibromo-4-hydroxy-benzylidene)-5-iodo-1,3-dihydro-indol-2-one], the “inhibition effect on xenografted tumor growth (tumor volume)” value in the series on ACHN cells [1] is listed as “nearly no inhibition effect”. For the same compound, the “death within, following injection of cancer cells” value in the series with Luc-ACHN-LL cells is on record as not above 5 weeks. Moreover, the “average cell necrosis rate” value in the series with ACHN cells [2] amounted to 1.35%. The “growth inhibition of cells” value in the series on ACHN cells [3] is “no growth inhibition”.

As to `C=C1[C@@H](O)[C@@H]2O[C@]3(CC[C@H](/C=C/[C@@H](C)[C@@H]4CC(C)=C[C@@]5(O[C@H](C[C@@](C)(O)C(=O)O)CC[C@H]5O)O4)O3)CC[C@H]2O[C@@H]1[C@@H](O)C[C@H](C)[C@H]1O[C@@]2(CCCCO2)CC[C@H]1C` [Okadaic acid], the “inhibition of dephosphorylation of pDAPK^S308 and growth of ACHN cells” value in the series with pDAPK^S308 is reported as “effective”.

Consider `CNC(=O)c1cc(Oc2ccc(NC(=O)Nc3ccc(Cl)c(C(F)(F)F)c3)cc2)ccn1` [sorafenib], for which, in the series with ACHN cells [1], the “inhibition effect on xenografted tumor growth (tumor volume)” value is given as “nearly no inhibition effect”. For the same compound, the “death within, following injection of cancer cells” value in the series with Luc-ACHN-LL cells is recorded as not above 8 weeks. Also, in the series with Luc-ACHN-LL cells (high-dose 60 mg/kg sorafenib), the body weight result was “loss of weight” and the death within is reported as not above 10 weeks. The “average cell necrosis rate” value in the series on ACHN cells [2] is reported as 0.77%. The “growth inhibition of cells” value with ACHN cells [3] is on record as “no growth inhibition”.
